Our source for the IC50 and inhibition values is patent US5225528A, “Cyclic hexapeptide oxytocin antagonists” (priority 1990, dated 1993).

Assay [1] has as its target T1, uterine OT receptors (Rattus norvegicus, UniProt P70536).
T1 construct: from tissue; host or cells: uterus of DES-treated rats, crude membranes
T1 sequence (P70536 1-388): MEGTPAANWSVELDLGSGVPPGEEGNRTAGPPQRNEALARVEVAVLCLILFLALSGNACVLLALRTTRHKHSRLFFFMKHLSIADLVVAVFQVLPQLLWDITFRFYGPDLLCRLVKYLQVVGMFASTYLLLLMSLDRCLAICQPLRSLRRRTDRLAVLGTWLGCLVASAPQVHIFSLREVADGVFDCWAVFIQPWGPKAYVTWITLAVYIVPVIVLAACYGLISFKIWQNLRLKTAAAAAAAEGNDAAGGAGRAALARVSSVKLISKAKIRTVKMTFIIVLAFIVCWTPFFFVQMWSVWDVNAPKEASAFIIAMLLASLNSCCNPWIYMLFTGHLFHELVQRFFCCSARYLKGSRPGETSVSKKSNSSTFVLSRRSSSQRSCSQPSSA
The experiment in a line: [^3 H]OT binding to uterine OT receptors, crude membrane preparation of uteri from DES-treated rats. As to conditions: for inhibition at 0.1 µM: @ 100 (nM). How it is done: Competition studies were conducted at equilibrium (60 minutes; 22° C.) using 1 nM [^3 H]OT in the following assay buffer: 50 mM Tris-HCl, 5 mM MgCl2, and 0.1% BSA, pH 7.4.

The target of assay [2] is T2, AVP-V1 sites (Rattus norvegicus, UniProt P30560).
T2 construct: crude membrane preparation of male rat liver (AVP-V1 sites); from tissue; host or cells: male rat liver, crude membranes
Nature of the assay: [^3 H]AVP binding to crude membrane preparation of male rat liver (AVP-V1 sites). How it is done: (§1) Nonspecific binding (5-10% of the total binding) was determined using 10 μM unlabeled AVP, and the binding reaction was terminated by filtration as described above for the [^3 H]OT binding assay.

Assay [3] has as its target T3, AVP-V2 sites (Rattus norvegicus, UniProt Q00788).
T3 construct: male rat liver (AVP-V1 sites) or kidney medulla (AVP-V2 sites); from tissue; host or cells: male rat kidney medulla, crude membranes
The experiment in a line: [^3 H]AVP binding to crude membrane preparation of male rat kidney medulla (AVP-V2 sites). Conditions: for inhibition at 1 µM: 0.5 h, @ 1,000 (nM), read-out: [^3 H]-AVP-V2: percent inhibition of radioligand at the given concentration. The method, then:
as §1

Setting [4] is: rat uterus membranes, 1 nM [^3 H]OT, read-out: Receptor Binding Results IC50 (nM) [^3 H]OT.
Setting [5] is: Receptor Binding Results IC50 (nM) [^3 H]-AVP-V1.
[6] abbreviates: rat kidney medulla membranes, 2 nM [^3 H]AVP, read-out: Receptor Binding Results IC50 (nM) [^3 H]-AVP-V2.
Where [7] appears, read: read-out: Receptor Binding Results IC50 (nM) [^3 H]-AVP-V1.
[8] abbreviates: read-out: Receptor Binding Results IC50 (nM) [^3 H]-AVP-V2.
The mark [9] stands for this setting: 1 h, read-out: [^3 H]OT: percent inhibition of radioligand at the given concentration.
[10] abbreviates: Receptor Binding Results IC50 (nM) [^3 H]-AVP-V2.

Structures can show the parent of a compound that is named as a salt. Where two headings read alike, the source gives them in different places. Numbered stars: 1 amine (or outer) side, 2 acyl side, 3 side chain; on linkers, the order of the positions; unused ones are H or OH. Square brackets hold non-standard residues; d marks the D form. Peptide text beside a SMILES is read from it. * marks the point of attachment. dPip(4-aza,4-Cbz) = O=C(O)[C@H]1CN(C(=O)OCc2ccccc2)CCN1; X2 = O=C(OCc1ccccc1)N1CCN([*:1])[C@H](C(=O)[*:2])C1; X8 = Cn1c[n+](C)cc1C[C@@H](N[*:1])C(=O)[*:2]; dPiz(1,6-dehydro) = O=C(O)[C@H]1CCC=NN1; d2Nal = N[C@H](Cc1ccc2ccccc2c1)C(=O)O; NMeI = CC[C@H](C)[C@H](NC)C(=O)O; X6 = O=C([C@H]1CCCNN1[*:1])[*:2]; dNMeF = CN[C@H](Cc1ccccc1)C(=O)O; Pip = O=C(O)[C@@H]1CCCCN1; dPip = O=C(O)[C@H]1CCCCN1; Orn = NCCC[C@H](N)C(=O)O; Cbz = O=C(OCc1ccccc1)*; Boc = CC(C)(C)OC(=O)* Some results are limits rather than exact numbers.

T3 sequence (Q00788 whole entry): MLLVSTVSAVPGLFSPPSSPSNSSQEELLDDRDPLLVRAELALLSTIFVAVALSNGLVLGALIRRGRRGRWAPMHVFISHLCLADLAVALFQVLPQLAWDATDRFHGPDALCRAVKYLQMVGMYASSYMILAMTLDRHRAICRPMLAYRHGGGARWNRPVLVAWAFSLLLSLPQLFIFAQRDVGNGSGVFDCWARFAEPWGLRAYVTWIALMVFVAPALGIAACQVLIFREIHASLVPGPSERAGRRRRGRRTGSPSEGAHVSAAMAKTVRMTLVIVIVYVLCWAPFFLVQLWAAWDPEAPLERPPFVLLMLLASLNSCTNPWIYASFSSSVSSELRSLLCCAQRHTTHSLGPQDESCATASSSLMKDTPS
T2 sequence (P30560 whole entry): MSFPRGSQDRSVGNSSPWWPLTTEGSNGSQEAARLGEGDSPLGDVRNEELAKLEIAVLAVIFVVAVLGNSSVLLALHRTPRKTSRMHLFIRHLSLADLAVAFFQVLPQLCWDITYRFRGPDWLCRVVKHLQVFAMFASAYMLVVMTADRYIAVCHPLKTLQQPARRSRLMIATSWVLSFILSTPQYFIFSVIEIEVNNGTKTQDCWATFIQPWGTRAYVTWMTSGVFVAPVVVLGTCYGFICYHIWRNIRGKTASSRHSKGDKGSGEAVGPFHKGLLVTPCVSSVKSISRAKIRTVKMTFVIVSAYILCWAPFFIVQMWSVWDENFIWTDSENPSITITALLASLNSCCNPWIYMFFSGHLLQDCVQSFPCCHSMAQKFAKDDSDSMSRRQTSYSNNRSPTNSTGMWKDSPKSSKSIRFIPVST

One may read the IC50 as the concentration at which inhibition is half-maximal. Turning to `CC[C@H](C)[C@@H]1NC(=O)[C@@H](Cc2c[nH]c3ccccc23)NC(=O)[C@@H]2CCCN2C(=O)[C@@H](Cc2ccccc2)N(C)C(=O)[C@H](CCCCNC(=O)OCc2ccccc2)NC(=O)[C@H]2CCCCN2C1=O` [Example 35, Cyclo[D-tryptophanyl-L-isoleucyl-D-pipecolyl-L-(carbobenzyloxy)lysyl-D-(N^α Methyl)phenylalanyl-L-prolyl]] (cyclo(I[dPip]K(Cbz)[dNMeF]P[dW])), the IC50 in assay [1] (setting [4]) is greater than 100 nM; in assay [2] (setting [5]) it was 10000 nM; in assay [3] (setting [6]), 10000 nM.

On to `CC[C@H](C)[C@@H]1NC(=O)[C@@H](Cc2ccccc2)NC(=O)[C@@H]2CCCN2C(=O)[C@@H](Cc2ccccc2)N(C)C(=O)[C@H](CCCCNC(=O)OC(C)(C)C)NC(=O)[C@H]2CCC=NN2C1=O` [Example 173, C-[D-Phenylalanyl-L-isoleucyl-D-Δ-piperazyl-L-(N^ε -t-Butyloxycarbonyl)-Lysl-M-Me-D-phenylalanyl-L-prolyl]] (cyclo(I[dPiz(1,6-dehydro)]K(Boc)[dNMeF]P[dF])), for which the IC50 in assay [1] (setting [4]) worked out at 71 nM; in assay [2] (setting [7]), 1500 nM; in assay [3] (setting [8]), 2800 nM.

With `CC[C@H](C)[C@@H]1NC(=O)[C@@H](Cc2cn(CC(=O)OC(C)(C)C)c3ccccc23)NC(=O)[C@@H]2CCCN2C(=O)[C@@H](Cc2ccccc2)N(C)C(=O)[C@@H]2CN(CC(=O)OC(C)(C)C)CCN2C(=O)[C@H]2CCCCN2C1=O` [Example 182, c-[D-Tryptophanyl(t-butylacetyl)-L-isoleucinyl-D-pipecolyl-L-piperazin-2-yl(4-t-butylacetyl)-D-(N^α -Me)phenylalanyl-L-prolyl]], the inhibition at 1 µM in assay [1] (1 h, @ 1,000 (nM), read-out: [^3 H]OT: percent inhibition of radioligand at the given concentration) was 56%. For the same compound, the IC50 in assay [2] (setting [5]) and in assay [3] (setting [6]) was greater than 10000 nM throughout.

Take `CC[C@H](C)[C@@H]1NC(=O)[C@@H](Cc2c[nH]c3ccccc23)NC(=O)[C@@H]2CCCN2C(=O)[C@@H](Cc2c[nH]cn2)NC(=O)[C@@H]2CCCCN2C(=O)[C@H]2CCCCN2C1=O` [Example 17, C-[D-tryptophanyl-L-isolelucyl-D-pipecolyl-L-pipecolyl-D-histidyl-L-prolyl]] (cyclo(I[dPip][Pip][dH]P[dW])): the IC50 was 14 nM in assay [1] (Receptor Binding Results IC50 (nM) [^3 H]OT), 8200 nM in assay [2] (setting [7]) and 5400 nM in assay [3] (setting [6]).

Regarding `CC[C@H](C)[C@@H]1NC(=O)[C@@H](Cc2c[nH]c3ccccc23)NC(=O)[C@@H]2CCCN2C(=O)[C@@H](Cc2ccccc2)N(C)C(=O)[C@H](CCCN)NC(=O)[C@H]2CCCCN2C1=O` [Example 40, Cyclo[D-tryptophanyl-L-isoleucyl-D-pipecolyl-L-ornithyl-D-(N^α Methyl)phenylalanyl-L-prolyl]] (cyclo(I[dPip][Orn][dNMeF]P[dW])), the inhibition at 0.1 µM in assay [1] (setting [9]) stood at 59%. Besides, the IC50 in assay [2] (setting [5]) and in assay [3] (setting [10]) was greater than 1000 nM each time.

Consider `CC[C@H](C)[C@H]1C(=O)N2CCCC[C@@H]2C(=O)N2CCCC[C@H]2C(=O)N(C)[C@H](Cc2ccccc2)C(=O)N2CCC[C@H]2C(=O)N[C@H](Cc2ccccc2)C(=O)N1C` [Example 105, c-[D-Phenylalanyl-N-methyl-L-isoleucyl-D-pipecolyl-L-pipecolyl-N-methyl-D-phenylalanyl-L-prolyl]] (cyclo([NMeI][dPip][Pip][dNMeF]P[dF])), for which the IC50 in assay [1] (setting [4]), in assay [2] (setting [5]) and in assay [3] (setting [6]) was greater than 10000 nM throughout.

Regarding `CC[C@H](C)[C@@H]1NC(=O)[C@@H](Cc2c[nH]c3ccccc23)NC(=O)[C@@H]2CCCN2C(=O)[C@@H](Cc2ccccc2)N(C)C(=O)[C@@H]2CN(C(=O)OCc3ccccc3)CCN2C(=O)[C@H]2CCC=NN2C1=O` [Example 168, c-[D-Tryptophanyl-L-isoleucinyl-D-Δ-piperazyl-L-piperazin-2-yl(4-Cbz)-N-Me-D-phenylalanyl-L-prolyl]] (cyclo(I[dPiz(1,6-dehydro)][X2][dNMeF]P[dW])), the IC50 was determined as 34 nM in assay [1] (setting [4]) and 10000 nM in assay [2] (setting [5]). Also, in assay [3], the inhibition at 1 µM was 54%.

With `CC[C@H](C)[C@@H]1NC(=O)[C@@H](Cc2c[nH]c3ccccc23)NC(=O)[C@@H]2CCCN2C(=O)[C@@H](Cc2c[n+](C)cn2C)NC(=O)[C@@H]2CCCCN2C(=O)[C@H]2CCCCN2C1=O` [Example 18, Cyclo[D-tryptophanyl-L-isoleucyl-D-pipecolyl-L-pipecolyl-D-[im-(CH3)2]^+ histidyl-L-prolyl] trifluoroacetate] (cyclo(I[dPip][Pip][X8]P[dW])), the figures for the IC50 in assay [1] (setting [4]), in assay [2] (setting [5]) and in assay [3] (setting [6]) were 450 nM, greater than 1000 nM and greater than 10000 nM, respectively.

Take `CC[C@H](C)[C@@H]1NC(=O)[C@@H](Cc2ccc3ccccc3c2)NC(=O)[C@@H]2CCCN2C(=O)[C@@H](Cc2c[nH]cn2)NC(=O)[C@@H]2CCCCN2C(=O)[C@H]2CCCCN2C1=O` [Example 12, Cyclo[D-2-naphthalalanyl-L-isoleucyl-D-pipecolyl-L-pipecolyl-D-histidyl-L-prolyl]] (cyclo(I[dPip][Pip][dH]P[d2Nal])): the results for the IC50 in assay [1] (setting [4]), in assay [2] (setting [5]) and in assay [3] (setting [10]) were 1.2 nM, greater than 1000 nM and greater than 1000 nM, respectively.

For the compound `CC[C@H](C)[C@@H]1NC(=O)[C@@H](Cc2ccc3ccccc3c2)NC(=O)[C@@H]2CCCN2C(=O)[C@@H](Cc2c[nH]cn2)NC(=O)[C@H]2CN(C(=O)OCc3ccccc3)CCN2C(=O)[C@H]2CCCCN2C1=O` [Example 160, c-[D-2-Naphthylalanyl-L-isoleucyl-D-pipecolyl-D-piperazin-2-yl-(4-carbobenzyloxy)-D-hystidyl-L-prolyl]] (cyclo(I[dPip][dPip(4-aza,4-Cbz)][dH]P[d2Nal])), the inhibition at 0.01 µM in assay [1] (1 h, @ 10 (nM), read-out: [^3 H]OT: percent inhibition of radioligand at the given concentration) was determined as 53%. This compound had an IC50 in assay [2] (setting [5]) greater than 1000 nM. Moreover, the inhibition at 1 µM in assay [3] came out at 66%.

Consider `CC[C@H](C)[C@@H]1NC(=O)[C@@H](Cc2ccccc2)NC(=O)[C@@H]2CCCN2C(=O)[C@@H](Cc2c[nH]cn2)NC(=O)[C@@H]2CCCCN2C(=O)[C@H]2CCCNN2C1=O` [Example 14, Cyclo[D-phenylalanyl-L-isoleucyl-D-piperazyl-L-pipecolyl-D-histidyl-L-prolyl]] (cyclo(I[X6][Pip][dH]P[dF])), for which the IC50 in assay [1] (setting [4]) is 38 nM; in assay [2] (setting [7]), 10000 nM; in assay [3] (setting [8]), greater than 10000 nM.

Take `CC[C@H](C)[C@@H]1NC(=O)[C@@H](Cc2ccc3ccccc3c2)NC(=O)[C@@H]2CCCN2C(=O)[C@@H](Cc2ccccc2)N(C)C(=O)[C@H](CCCCNC(=O)OC(C)(C)C)NC(=O)[C@H]2CCCCN2C1=O` [Example 138, c-[D-2-Naphthylalanyl-L-isoleucyl-D-pipecolyl-L-(N-t-butyloxycarbonyl)lysyl-D-(N-methyl)phenylalanyl-L-prolyl]] (cyclo(I[dPip]K(Boc)[dNMeF]P[d2Nal])): the inhibition at 0.1 µM in assay [1] (setting [9]) is 50%. For the same compound, in assay [2] (setting [5]), the IC50 came to 10000 nM. Besides, in assay [3], the inhibition at 1 µM was 42%.

Take `CC[C@H](C)[C@@H]1NC(=O)[C@@H](Cc2c[nH]c3ccccc23)NC(=O)[C@@H]2CCCN2C(=O)[C@@H](Cc2c[nH]cn2)NC(=O)[C@H](CCCNC(=O)OC(C)(C)C)NC(=O)[C@H]2CCCNN2C1=O` [Example 128, c-[D-Tryptophanyl-L-isoleucyl-D-piperazyl(N^δ -Boc)-L-or nithyl-D-histidyl-L-prolyl]] (cyclo(I[X6][Orn](Boc)[dH]P[dW])): the values for the IC50 in assay [1] (setting [4]), in assay [2] (setting [5]) and in assay [3] (setting [6]) were 118 nM, 10000 nM and 10000 nM, respectively.

Regarding `CC[C@H](C)[C@@H]1NC(=O)[C@@H](Cc2ccc(OC)cc2)NC(=O)[C@@H]2CCCN2C(=O)[C@@H](Cc2ccccc2)N(C)C(=O)[C@H](CCCCNC(=O)OC(C)(C)C)NC(=O)[C@H]2CCCCN2C1=O` [Example 149, c-[D-(O-Methyl)Tyrosyl-L-isoleucyl-D-pipecolyl-L-(N-t-butyloxycarbonyl)lysyl-D-(N-methyl)phenylalanyl-L-prolyl]] (cyclo(I[dPip]K(Boc)[dNMeF]P[dY](Me))), the inhibition at 0.1 µM in assay [1] (setting [9]) amounted to 53%. Besides, the IC50 is greater than 10000 nM in assay [2] (setting [5]) and 10000 nM in assay [3] (setting [6]).

Consider `CC[C@H](C)[C@@H]1NC(=O)[C@@H](Cc2ccccc2)NC(=O)[C@@H]2CCCN2C(=O)[C@@H](Cc2ccccc2)NC(=O)[C@@H]2CN(C(=O)OCc3ccccc3)CCN2C(=O)[C@H]2CN(C(=O)OCc3ccccc3)CCN2C1=O` [Example 79, c-[D-Phenylalanyl-L-isoleucinyl-D-piperazin-2-yl (4-Cbz)-L-piperazin-2-yl (4-Cbz)-D-phenylalanyl-L-prolyl]] (cyclo(I[dPip(4-aza,4-Cbz)][X2][dF]P[dF])), for which the IC50 in assay [1] (setting [4]) was 1700 nM; in assay [2] (setting [5]), greater than 10000 nM; in assay [3] (setting [6]), 10000 nM.
